Like-named read-outs stand apart in the source and are kept apart here.
Key:
[1] = Cytotoxicity MTS assay (CellTiter 96 Aqueous One Solution) in replicon cells; assay type: cell-based; conditions: HCV replicon cells (1b-Con1); EDU; read-out: CC50 (EDU) Range
Method: (§1) To measure cell-based anti-HCV activity of the compounds of the present invention, replicon cells (1b-Con1) are seeded at 5000 cells/well in 96-well plates one day prior to treatment with a compound of the invention. Various concentrations of a test compound of the invention in DMSO are then added to the replicon cells, with the final concentration of DMSO at 0.5% and fetal bovine serum at 10% in the assay media. Cells are harvested three days post-dosing, and the replicon RNA level is determined using real-time RT-PCR (Taqman assay) with GAPDH RNA as endogenous control. EC50 values are calculated from experiments with 10 serial twofold dilutions of the inhibitor in triplicate. To measure cytotoxicity in replicon cells of an inhibitor, an MTS assay is performed according to the manufacturer's protocol for CellTiter 96 Aqueous One Solution Cell Proliferation Assay (Promega, Cat # G3580) three days post dosing on cells treated identically as in replicon activity assays. […] Cytotoxicity in other types of cells may be measured using the same MTS protocol.

[2] = system: replicon cells (1b-Con1); test: Replicon activity assay (replicon RNA level by real-time RT-PCR, Taqman); assay type: cell-based; conditions: HCV replicon genotype 1b, read-out: EC50 (1b) Range
Method: as §1

| Structure (SMILES) | CC50 at 3 days [1] [µM] | EC50 ([2]; Hepatitis C virus) [µM] | EC50 [2] [µM] |
| --- | --- | --- | --- |
| C#C[C@]1(C)[C@@H]2O[P@](=O)(OC[C@H](F)CC(=O)OC(C)C)OC[C@H]2O[C@H]1n1ccc(=O)[nH]c1=O [Compound 66B] | > 50 | 0.25 to 1 |  |
| CC(C)OC(=O)CS(=O)(=O)CCO[P@@]1(=O)OC[C@H]2O[C@@H](n3ccc(=O)[nH]c3=O)[C@](C)(N)[C@@H]2O1 [Compound 58A] | < 50 | > 10 |  |
| C#C[C@]1(C)[C@@H]2O[P@](=O)(OCC(CC(=O)OC(C)C)N(C)C(=O)OC(C)(C)C)OC[C@H]2O[C@H]1n1ccc(=O)[nH]c1=O (stereo partly drawn) [Compound 74B] | > 50 | > 10 |  |
| C#C[C@]1(C)[C@@H]2O[P@](=O)(OCCC(CC)C(=O)OC(C)C)OC[C@H]2O[C@H]1n1ccc(=O)[nH]c1=O (stereo partly drawn) [Compound 31B] | > 50 | > 10 |  |
| C#C[C@]1(C)[C@@H]2O[P@](=O)(OC[C@H](CC(=O)OC(C)C)OC(C)=O)OC[C@H]2O[C@H]1n1ccc(=O)[nH]c1=O [Compound 55B] |  | > 10 |  |
| C#C[C@]1(C)[C@@H]2O[P@](=O)(OCCC(C)(C)C(=O)OC(C)C)OC[C@H]2O[C@H]1n1ccc(=O)[nH]c1=O [Compound 20B] | > 50 | > 10 |  |
| CC(C)OC(=O)CC(C)(C)CO[P@]1(=O)OC[C@H]2O[C@@H](n3ccc(=O)[nH]c3=O)[C@](C)(N)[C@@H]2O1 [Compound 17B] | > 50 | > 10 |  |
| CO[C@H](CO[P@]1(=O)OC[C@H]2O[C@@H](n3ccc(=O)[nH]c3=O)[C@](C)(N)[C@@H]2O1)[C@@H](OC)C(=O)OC(C)C [Compound 48B] | > 50 | > 10 |  |
| C#C[C@]1(C)[C@@H]2O[P@@](=O)(OCCOCC(=O)OC(C)C)OC[C@H]2O[C@H]1n1ccc(=O)[nH]c1=O [Compound 68A] | > 50 | > 10 |  |
| COC(=O)N[C@H](CO[P@]1(=O)OC[C@H]2O[C@@H](n3ccc(=O)[nH]c3=O)[C@](C)(C#N)[C@@H]2O1)C(=O)OC(C)C [Compound 41B] | > 50 | > 10 |  |
| CC(C)OC(=O)[C@@H](C)CCO[P@]1(=O)OC[C@H]2O[C@@H](n3cnc4c(N)ncnc43)[C@](C)(C#N)[C@@H]2O1 [Compound 71B] | > 50 | 1 to 10 |  |
| CC(C)OC(=O)C1(CCO[P@@]2(=O)OC[C@H]3O[C@@H](n4ccc(=O)[nH]c4=O)[C@](C)(N)[C@@H]3O2)CC1 [Compound 27A] | > 50 | > 10 |  |
| CC(=O)O[C@H](CO[P@@]1(=O)OC[C@H]2O[C@@H](n3ccc(=O)[nH]c3=O)[C@](C)(N)[C@@H]2O1)CC(=O)OC(C)C [Compound 52A] |  | > 10 |  |
| COC(=O)N[C@H](CO[P@@]1(=O)OC[C@H]2O[C@@H](n3ccc(=O)[nH]c3=O)[C@](C)(C#N)[C@@H]2O1)C(=O)OC(C)C [Compound 41A] | > 50 | > 10 |  |
| CO[C@@H](CO[P@]1(=O)OC[C@H]2O[C@@H](n3ccc(=O)[nH]c3=O)[C@](C)(N)[C@@H]2O1)CC(=O)OC(C)C [Compound 63B] | > 50 | > 10 |  |
| C[C@@]1(N)[C@@H]2O[P@@](=O)(OCCC3(C(=O)OC4CCCC4)CC3)OC[C@H]2O[C@H]1n1ccc(=O)[nH]c1=O [Compound 26A] | > 50 | > 10 |  |
| CCOC(=O)C(C)CCOP1(=O)OC[C@H]2O[C@@H](n3ccc(=O)[nH]c3=O)[C@](C)(N)[C@@H]2O1 (single isomer, unassigned) [Compound 5A] | > 50 |  | 1 to 10 |
| CC(C)OC(=O)C1CC1CO[P@@]1(=O)OC[C@H]2O[C@@H](n3ccc(=O)[nH]c3=O)[C@](C)(N)[C@@H]2O1 (stereo partly drawn) [Compound 47A] | > 50 | > 10 |  |
| C#C[C@]1(C)[C@@H]2O[P@](=O)(OCCC(C)C(=O)OC3CCCCC3)OC[C@H]2O[C@H]1n1ccc(=O)[nH]c1=O (stereo partly drawn) [Compound 77B] | > 50 | ≤ 0.25 |  |

| Structure (SMILES) | CC50 at 3 days [1] [µM] | EC50 ([2]; Hepatitis C virus) [µM] | EC50 [2] [µM] |
| --- | --- | --- | --- |
| COC(=O)N[C@@H](CCO[P@@]1(=O)OC[C@H]2O[C@@H](n3ccc(=O)[nH]c3=O)[C@](C)(N)[C@@H]2O1)C(=O)OC(C)C [Compound 42A] | > 50 | > 10 |  |
| CC(C)OC(=O)C(C)CCOP1(=O)OC[C@H]2O[C@@H](n3ccc(=O)[nH]c3=O)[C@](C)(Cl)[C@@H]2O1 (stereo partly drawn) [Compound 39A] | > 50 | ≤ 0.25 |  |
| CC(CCO[P@]1(=O)OC[C@H]2O[C@@H](n3ccc(=O)[nH]c3=O)[C@](C)(N)[C@@H]2O1)C(=O)OC1CCCCC1 (stereo partly drawn) [Compound 78B] | > 50 | 1 to 10 |  |
| CCCCCOC(=O)C(C)CCO[P@]1(=O)OC[C@H]2O[C@@H](n3ccc(=O)[nH]c3=O)[C@](C)(N)[C@@H]2O1 (stereo partly drawn) [Compound 79B] | > 50 | 1 to 10 |  |
| CO[C@@H](CO[P@@]1(=O)OC[C@H]2O[C@@H](n3ccc(=O)[nH]c3=O)[C@](C)(N)[C@@H]2O1)CC(=O)OC(C)C [Compound 63A] | > 50 | > 10 |  |
| C#C[C@]1(C)[C@@H]2OP(=O)(OCC(C)CC(=O)OC(C)C)OC[C@H]2O[C@H]1n1ccc(=O)[nH]c1=O (single isomer, unassigned) [Compound 6A] | > 50 |  | 1 to 10 |
| CC(C)OC(=O)[C@@H](C)CCO[P@]1(=O)OC[C@H]2O[C@@H](n3ccc4c(N)ncnc43)[C@](C)(Cl)[C@@H]2O1 [Compound 80B] |  | 1 to 10 |  |
| CC(=O)O[C@H](CO[P@]1(=O)OC[C@H]2O[C@@H](n3ccc(=O)[nH]c3=O)[C@](C)(N)[C@@H]2O1)CC(=O)OC(C)C [Compound 52B] |  | > 10 |  |
| CC(C)OC(=O)[C@H](C)CCO[P@]1(=O)OC[C@H]2O[C@@H](n3cc(F)c4c(N)ncnc43)[C@](C)(Cl)[C@@H]2O1 [Compound 81B] |  | > 10 |  |
| CCC(CCO[P@@]1(=O)OC[C@H]2O[C@@H](n3ccc(=O)[nH]c3=O)[C@](C)(N)[C@@H]2O1)C(=O)OC1CCCC1 (stereo partly drawn) [Compound 25A] |  | > 10 |  |
| CC(C)OC(=O)[C@@H](C)CCO[P@@]1(=O)OC[C@H]2O[C@@H](n3cc(F)c4c(N)ncnc43)[C@](C)(Cl)[C@@H]2O1 [Compound 82A] |  | > 10 |  |
| CC(C)OC(=O)[C@@H](C)CCO[P@@]1(=O)OC[C@H]2O[C@@H](n3ccc4c(N)ncnc43)[C@](C)(Cl)[C@@H]2O1 [Compound 80A] |  | > 10 |  |
| CC(C)OC(=O)[C@H](C)CCO[P@@]1(=O)OC[C@H]2O[C@@H](n3cc(F)c4c(N)ncnc43)[C@](C)(Cl)[C@@H]2O1 [Compound 81A] |  | > 10 |  |
| CCC(CCO[P@]1(=O)OC[C@H]2O[C@@H](n3ccc(=O)[nH]c3=O)[C@](C)(N)[C@@H]2O1)C(=O)OC1CCCC1 (stereo partly drawn) [Compound 25B] |  | > 10 |  |
| C#C[C@]1(C)[C@@H]2O[P@@](=O)(OC[C@H](CC(=O)OC(C)C)OC(C)=O)OC[C@H]2O[C@H]1n1ccc(=O)[nH]c1=O [Compound 55A] |  | > 10 |  |
| CC(C)OC(=O)[C@H](C)CCOP1(=O)OC[C@@]2(F)O[C@@H](n3ccc(=O)[nH]c3=O)[C@](C)(F)[C@@H]2O1 (stereo partly drawn) [Compound 87A] |  | ≤ 0.25 |  |
| CC(=O)O[C@H](C(=O)OC(C)C)[C@@H](CO[P@@]1(=O)OC[C@H]2O[C@@H](n3ccc(=O)[nH]c3=O)[C@](C)(N)[C@@H]2O1)OC(C)=O [Compound 53A] |  | > 10 |  |
| CC(C)OC(=O)[C@H](C)CCO[P@]1(=O)OC[C@H]2O[C@@H](n3cc(F)c4c(N)ncnc43)[C@](C)(Cl)[C@@H]2O1 [Compound 82B] |  |  | > 10 |
